Biological target: T1, hSOS1 (hSOS1-mediated nucleotide exchange of hK-RasG12C) (Homo sapiens, UniProt Q07889)
T1 construct: hSOS1 (amino acid 564-1049); made in house; host or cells: E. coli BL21 (DE3)
T1 sequence (Q07889 with tags, fused parts or gaps): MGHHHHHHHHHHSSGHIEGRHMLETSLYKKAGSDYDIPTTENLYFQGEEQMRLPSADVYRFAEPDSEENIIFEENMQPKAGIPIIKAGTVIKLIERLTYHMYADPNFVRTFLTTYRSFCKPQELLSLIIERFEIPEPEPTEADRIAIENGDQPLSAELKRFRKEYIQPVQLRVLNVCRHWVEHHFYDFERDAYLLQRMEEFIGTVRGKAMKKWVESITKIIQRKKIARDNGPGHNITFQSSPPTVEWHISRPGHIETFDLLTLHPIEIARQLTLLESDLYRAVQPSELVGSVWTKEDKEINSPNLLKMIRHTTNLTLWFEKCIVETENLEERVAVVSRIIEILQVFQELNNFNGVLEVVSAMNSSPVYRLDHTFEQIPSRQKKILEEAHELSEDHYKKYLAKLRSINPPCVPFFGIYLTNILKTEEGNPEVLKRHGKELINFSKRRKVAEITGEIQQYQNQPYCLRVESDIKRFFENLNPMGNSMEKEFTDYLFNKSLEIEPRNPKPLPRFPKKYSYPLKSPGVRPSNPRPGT
Assay: Biochemical Assay 2: hK-RasG12C activation assay by hSOS1 at high GTP concentration (HTRF nucleotide exchange)
Details: high GTP (50 μM GTP)
Text: Biochemical Assay 2: hK-RasG12C Activation Assay by hSOS1 at High GTP Concentration
This assay quantifies human SOS1-mediated nucleotide exchange of human K-Ras^G12C (hK-RasG12C) preloaded with a fluorescent […] and in presence of an excess of free GTP. Loaded hK-RasG12C generates a high HTRF-signal by energy transfer from antiGST-Terbium (FRET donor) bound to hK-Ras to the loaded fluorescent GDP analog (FRET-acceptor). hSOS1 activity exchanges the fluorescent GDP for non-fluorescent GTP and therefore leads to a reduction of the HTRF signal.
The fluorescent GDP-analog EDA-GDP-Dy647P1 (2′/3′-O-(2-Aminoethyl-carbamoyl)-guanosine-5′-diphosphate labelled with Dy647P1 (Dyomics GmbH, Germany)) was synthesized by Jena Biosciences GmbH (Germany) and supplied as a 1 mM aqueous solution.
Concentrations of protein batches used were optimized to be within the linear range of the HTRF signal.
Addition of 20 μl 1 M MgCl2 (Sigma) to final 40 mM and store on ice. Purification into buffer (10 mM HEPES pH 7.4 (Applichem), 150 mM NaCl (Sigma), 5 mM MgCl2 (Sigma)) by use of a PD-Minitrap desalting column (GE Healthcare). Concentration of 1 ml purified hK-Ras-GDP-Dy647 is approx. 4-5 μM.
The assay buffer contained 10 mM HEPES pH 7.4 (Applichem), 150 mM NaCl (Sigma), 5 mM MgCl2 (Sigma), 1 mM DTT (Thermofisher), 0.05% BSA Fraction V, pH 7.0, (ICN Biomedicals), 0.0025% (v/v) Igepal (Sigma).
A Ras working solution was prepared in assay buffer containing typically 80 nM loaded GST-hK-RasG12C-EDA-GDP-Dy647P1 and 2 nM antiGST-Tb (Cisbio, France).
Alternatively, the inhibitor control solution was prepared by supplementing the hSOS1 working solution with 20 μM of 6,7-dimethoxy-N-[(1R)-1-(1-naphthyl)ethyl]quinazolin-4-amine which was used to calibrate the assay.
Fifty nl of a 100-fold concentrated solution of the test compound in DMSO were transferred into a black microtiter test plate (384 or 1536, Greiner Bio-One, Germany) For this, either a Hummingbird liquid handler (Digilab, Mass., USA) or an Echo acoustic system (Labcyte, Calif., USA) was used.
All steps of the assay were performed at 20° C. A volume of 2.5 μl of the Ras working solution was added to all wells of the test plate using a Multidrop dispenser (Thermo Labsystems). After 2 min. preincubation, 2.5 μl of the hSOS1 working solution were added to all wells except for those wells at the side of the test plate that were subsequently filled with 2.5 μl of the inhibitor control solution. After 20 min. incubation the fluorescence was measured with a Pherastar (BMG, Germany) using the HTRF module (excitation 337 nm, emission 1:620 nm, emission 2:665 nm).
IC50 values were calculated by 4-Parameter fitting using a commercial software package (Genedata Screener, Switzerland).

| SMILES | IC50 [nM] |
| --- | --- |
| CC(=O)NCCOc1cc2c(N[C@H](C)c3cccc(Br)c3)nc(C)nc2cn1 [Example 62, N-{2-[(4-{[(1R)-1-(3-bromophenyl)ethyl]amino}-2-methylpyrido[3,4-d]pyrimidin-6-yl)oxy]ethyl}acetamide] | 443 |
| Cc1nc(NC(C)c2ccc(-c3ccccc3CN(C)C)s2)c2cc(N3CC(NC(=O)C4CCCCC4)C3)ncc2n1 (stereo not drawn) [Example 90, N-[1-(4-{[1-(5-{2-[(dimethylamino)methyl]phenyl}thiophen-2-yl)ethyl]amino}-2-methylpyrido[3,4-d]pyrimidin-6-yl)azetidin-3-yl]cyclohexanecarboxamide] | 154 |
| COc1ccc2nc(C)nc(N[C@H](C)c3cccc(Br)c3)c2n1 [Example 28, N-[(1R)-1-(3-bromophenyl)ethyl]-6-methoxy-2-methylpyrido[3,2-d]pyrimidin-4-amine] | > 20000 |
| Cc1nc(N[C@H](C)c2cccc(Br)c2)c2nc(OCc3ccccc3)ccc2n1 [Example 33, 6-(benzyloxy)-N-[(1R)-1-(3-bromophenyl)ethyl]-2-methylpyrido[3,2-d]pyrimidin-4-amine] | > 20000 |
| Cc1nc(N[C@H](C)c2cccc(Br)c2)c2cc(NCCn3cccn3)ncc2n1 [Example 49, N4-[(1R)-1-(3-bromophenl)pethyl]-2-methyl-N6-[2-(1H-pyrazol-1-yl)ethyl]pyrido[3,4-d]pyrimidine-4,6-diamine] | 3630 |
| Cc1nc(NC(C)c2ccc(-c3ccccc3CN(C)C)s2)c2cc(C3(O)CCN(C)C3=O)ncc2n1 (mixture of isomers) [Example 85, 3-(4-{[1-(5-{2-[(dimethylamino)methyl]phenyl}thiophen-2-yl)ethyl]amino}-2-methylpyrido[3,4-d]pyrimidin-6-yl)-3-hydroxy-1-methylpyrrolidin-2-one] | 214 |
| CC(=O)NCCNc1cc2c(N[C@H](C)c3cccc(Br)c3)nc(C)nc2cn1 [Example 44, N-{2-[(4-{[(1R)-1-(3-bromophenyl)ethyl]amino}-2-methylpyrido[3,4-d]pyrimidin-6-yl)amino]ethyl}acetamide] | 1060 |
| COc1cc2c(N[C@H](C)c3ccc(F)c(C4CC4)c3)nc(C)nc2cn1 [Example 12] | 6450 |
| Cc1nc(N[C@H](C)c2cccc(Br)c2)c2cc(OCCCN(C)C)ncc2n1 [Example 70, N-[(1R)-1-(3-bromophenyl)ethyl]-6-[3-(dimethylamino)propoxy]-2-methylpyrido[3,4-d]pyrimidin-4-amine] | 951 |
| CCOc1ccc2nc(C)nc(N[C@H](C)c3cccc(Br)c3)c2n1 [Example 29, N-[(1R)-1-(3-bromophenyl)ethyl]-6-ethoxy-2-methylpyrido[3,2-d]pyrimidin-4-amine] | > 20000 |
| Cc1nc(NC(C)c2ccc(-c3ccccc3CN(C)C)s2)c2cc(OC3CCS(=N)(=O)CC3)ncc2n1 (stereo not drawn) [Example 77, N-[1-(5-{2-[(dimethylamino)methyl]phenyl}-2-thienyl)ethyl]-6-[(1-imino-1-oxidohexahydro-1lambda4-thiopyran-4-yl)oxy]-2-methylpyrido[3,4-d]pyrimidin-4-amine] | 58.8 |
| CCOc1cc2c(NC(C)c3ccc(-c4ccccc4CN(C)C)s3)nc(C)nc2cn1 (stereo not drawn) [Example 63, N-[1-(5-{2-[(dimethylamino)methyl]phenyl}thiophen-2-yl)ethyl]-6-ethoxy-2-methylpyrido[3,4-d]pyrimidin-4-amine] | 28 |
| Cc1nc(NC(C)c2ccc(-c3ccccc3CN(C)C)s2)c2cc(OCC3CC3)ncc2n1 (stereo not drawn) [Example 73, 6-(cyclopropylmethoxy)-N-[1-(5-{2-[(dimethylamino)methyl]phenyl}thiophen-2-yl)ethyl]-2-methylpyrido[3,4-d]pyrimidin-4-amine] | 129 |
| Cc1nc(NC(C)c2ccc(-c3ccccc3CN(C)C)s2)c2cc(C3CCN(C)C3=O)ncc2n1 (mixture of isomers) [Example 69, 3-(4-{[1-(5-{2-[(dimethylamino)methyl]phenyl}thiophen-2-yl)ethyl]amino}-2-methylpyrido[3,4-d]pyrimidin-6-yl)-1-methylpyrrolidin-2-one] | 98.3 |
| COc1cc2c(NC(C)c3cccc4sccc34)nc(C)nc2cn1 (stereo not drawn) [Example 4, N-[1-(1-benzothiophen-4-yl)ethyl]-6-methoxy-2-methylpyrido[3,4-d]pyrimidin-4-amine] | 423 |
| CCOc1cc2c(N[C@H](C)c3cccc(Br)c3)nc(C)nc2cn1 [Example 5, N-[(1R)-1-(3-bromophenyl)ethyl]-6-ethoxy-2-methylpyrido[3,4-d]pyrimidin-4-amine] | 994 |
| Cc1nc(N[C@H](C)c2cccc(Br)c2)c2cc(Oc3cccc(O)c3)ncc2n1 [Example 40, 3-[(4-{[(1R)-1-(3-bromophenyl)ethyl]amino}-2-methylpyrido[3,4-d]pyrimidin-6-yl)oxy]phenol] | 8660 |
| CC(=O)NC1CCN(c2cc3c(N[C@H](C)c4cccc(Br)c4)nc(C)nc3cn2)C1 (mixture of isomers) [Example 42, N-[1-(4-{[(1R)-1-(3-bromophenyl)ethyl]amino}-2-methylpyrido[3,4-d]pyrimidin-6-yl)pyrrolidin-3-yl]acetamide] | 215 |
| COc1cc2c(N[C@H](C)c3cccc(Br)c3)nc(C)nc2cn1 [Example 57, N-[(1R)-1-(3-bromophenyl)ethyl]-6-methoxy-2-methylpyrido[3,4-d]pyrimidin-4-amine] | 1230 |
| Cc1nc(N[C@H](C)c2cccc(Br)c2)c2nc(N(C)C)ccc2n1 [Example 31] | ≥ 40000 |
| CCOc1cc2c(N[C@H](C)c3cccc(Cl)c3)nc(C)nc2cn1 [Example 6] | 1120 |
| Cc1nc(N[C@H](C)c2cccc(Br)c2)c2cc(Oc3cccc(C4=NCCN4C)c3)ncc2n1 [Example 41, N-[(1R)-1-(3-bromophenyl)ethyl]-2-methyl-6-[3-(1-methyl-4,5-dihydro-1H-imidazol-2-yl)phenoxy]pyrido[3,4-d]pyrimidin-4-amine] | 2310 |
| Cc1nc(N[C@H](C)c2cccc(Br)c2)c2nc(OCc3ccccc3)ncc2n1 [Example 20, 6-(benzyloxy)-N-[(1R)-1-(3-bromophenyl)ethyl]-2-methylpyrimido[5,4-d]pyrimidin-4-amine] | > 20000 |
| Cc1nc(NC(C)c2ccc(-c3ccccc3CN(C)C)s2)c2cc(NCCN3CCOCC3)ncc2n1 (stereo not drawn) [Example 48] | 141 |
| Cc1nc(NC(C)c2ccc(-c3ccccc3CN(C)C)s2)c2cc(N3CC(NS(=O)(=O)c4ccccc4)C3)ncc2n1 (stereo not drawn) [Example 94, N-[1-(4-{[1-(5-{2-[(dimethylamino)methyl]phenyl}thiophen-2-yl)ethyl]amino}-2-methylpyrido[3,4-d]pyrimidin-6-yl)azetidin-3-yl]benzenesulfonamide] | 163 |
| Cc1nc(N[C@H](C)c2cccc(Br)c2)c2cc(F)ncc2n1 [Example 34, N-[(1R)-1-(3-bromophenyl)ethyl]-6-fluoro-2-methylpyrido[3,4-d]pyrimidin-4-amine] | > 20000 |
| CC(=O)NCCNc1cc2c(NC(C)c3ccc(-c4ccccc4CN(C)C)s3)nc(C)nc2cn1 (stereo not drawn) [Example 51, N-{2-[(4-{[1-(5-{2-[(dimethylamino)methyl]phenyl}thiophen-2-yl)ethyl]amino}-2-methylpyrido[3,4-d]pyrimidin-6-yl)amino]ethyl}acetamide] | 77.8 |

Reference: patent publication US20220274979A1 (Bayer Pharma Aktiengesellschaft, priority 2018, published 2022)
